Test [1] deals with T1, Serine/threonine-protein kinase ULK1 (Homo sapiens) (UniProt O75385).
T1 sequence (whole entry): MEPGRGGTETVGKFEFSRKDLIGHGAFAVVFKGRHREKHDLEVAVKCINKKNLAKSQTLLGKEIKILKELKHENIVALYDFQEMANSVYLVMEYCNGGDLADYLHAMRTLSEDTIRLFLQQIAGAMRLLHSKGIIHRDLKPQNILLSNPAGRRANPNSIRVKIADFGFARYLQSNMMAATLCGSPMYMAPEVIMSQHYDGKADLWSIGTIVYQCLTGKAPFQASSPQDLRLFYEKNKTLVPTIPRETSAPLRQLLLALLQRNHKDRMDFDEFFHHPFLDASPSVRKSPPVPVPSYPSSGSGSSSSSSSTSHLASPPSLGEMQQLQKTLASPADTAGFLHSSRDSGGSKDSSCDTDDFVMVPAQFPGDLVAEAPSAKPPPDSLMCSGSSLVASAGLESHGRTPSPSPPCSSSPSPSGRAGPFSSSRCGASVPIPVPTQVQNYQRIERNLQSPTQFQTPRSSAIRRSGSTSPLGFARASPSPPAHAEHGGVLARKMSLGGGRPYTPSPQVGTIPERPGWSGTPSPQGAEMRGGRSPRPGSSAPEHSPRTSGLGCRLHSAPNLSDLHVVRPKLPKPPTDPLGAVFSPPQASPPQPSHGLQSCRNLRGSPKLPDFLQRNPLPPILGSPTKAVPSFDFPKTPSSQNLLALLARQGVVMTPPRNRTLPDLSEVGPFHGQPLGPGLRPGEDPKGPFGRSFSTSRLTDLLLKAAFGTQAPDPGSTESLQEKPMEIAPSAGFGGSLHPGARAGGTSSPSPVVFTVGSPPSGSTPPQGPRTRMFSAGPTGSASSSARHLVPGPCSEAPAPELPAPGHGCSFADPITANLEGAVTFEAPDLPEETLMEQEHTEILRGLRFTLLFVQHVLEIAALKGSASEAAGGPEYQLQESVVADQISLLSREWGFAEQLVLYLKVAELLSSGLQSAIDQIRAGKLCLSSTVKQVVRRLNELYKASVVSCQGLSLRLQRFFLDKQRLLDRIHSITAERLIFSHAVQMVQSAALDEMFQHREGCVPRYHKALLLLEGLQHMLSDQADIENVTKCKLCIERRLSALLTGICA
Nature of the test: Selectivity interaction (Kinase panel (KiNativ target engagement assay in Jurkat cells)) EUB0001635a ULK1. Type of test: cell-based. The note with it: Selectivity number of off-targets 0.0, Selectivity number of targets 233.0, Source Knowledge https://www.sciencedirect.com/science/article/pii/S2451945619300674?via%3Dihub, at 1 µM.

The target in test [2] is Dual specificity mitogen-activated protein kinase kinase 1 (Homo sapiens, UniProt Q02750). The note with it: at 10 µM.
Chain of Dual specificity mitogen-activated protein kinase kinase 1 (Q02750 whole entry): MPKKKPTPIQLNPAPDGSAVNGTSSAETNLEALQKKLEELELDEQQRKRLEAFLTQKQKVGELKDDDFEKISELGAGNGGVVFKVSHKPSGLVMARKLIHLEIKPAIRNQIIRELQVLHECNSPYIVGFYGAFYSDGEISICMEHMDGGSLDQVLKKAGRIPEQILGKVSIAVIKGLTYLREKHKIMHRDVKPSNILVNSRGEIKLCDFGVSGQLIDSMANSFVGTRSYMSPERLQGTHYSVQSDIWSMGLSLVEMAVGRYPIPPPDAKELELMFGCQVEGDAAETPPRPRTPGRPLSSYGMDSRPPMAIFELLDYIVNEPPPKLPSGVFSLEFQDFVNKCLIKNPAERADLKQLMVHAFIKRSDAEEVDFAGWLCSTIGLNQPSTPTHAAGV
The target of test [3] is SRSF protein kinase 2 (Homo sapiens) (UniProt P78362). The experiment in a line: Selectivity interaction (KinomeScan (DiscoverX)) EUB0000666a SRPK2. The note with it: at 10 µM.
Chain of SRSF protein kinase 2 (Homo sapiens) (P78362 whole entry, looked up): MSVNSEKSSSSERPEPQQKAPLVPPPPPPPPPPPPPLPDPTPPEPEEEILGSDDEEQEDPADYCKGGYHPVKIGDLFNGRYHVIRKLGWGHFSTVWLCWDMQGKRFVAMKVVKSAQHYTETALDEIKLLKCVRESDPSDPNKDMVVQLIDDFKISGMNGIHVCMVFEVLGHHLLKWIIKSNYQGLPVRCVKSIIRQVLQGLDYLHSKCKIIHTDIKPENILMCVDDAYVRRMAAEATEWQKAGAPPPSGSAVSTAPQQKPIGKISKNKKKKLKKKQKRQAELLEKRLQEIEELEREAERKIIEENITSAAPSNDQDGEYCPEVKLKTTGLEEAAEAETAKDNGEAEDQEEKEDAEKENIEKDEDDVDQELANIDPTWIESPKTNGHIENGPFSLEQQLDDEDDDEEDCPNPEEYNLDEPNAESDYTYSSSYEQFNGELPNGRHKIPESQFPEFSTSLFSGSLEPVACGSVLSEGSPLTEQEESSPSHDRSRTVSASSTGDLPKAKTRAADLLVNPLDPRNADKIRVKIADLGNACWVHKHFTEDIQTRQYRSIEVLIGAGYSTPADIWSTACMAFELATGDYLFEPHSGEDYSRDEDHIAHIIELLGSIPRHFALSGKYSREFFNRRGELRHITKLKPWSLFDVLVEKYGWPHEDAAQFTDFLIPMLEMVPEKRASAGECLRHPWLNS
Test [4] concerns the target T2, Myosin-IIIb (Homo sapiens) (UniProt Q8WXR4).
T2 sequence (whole entry): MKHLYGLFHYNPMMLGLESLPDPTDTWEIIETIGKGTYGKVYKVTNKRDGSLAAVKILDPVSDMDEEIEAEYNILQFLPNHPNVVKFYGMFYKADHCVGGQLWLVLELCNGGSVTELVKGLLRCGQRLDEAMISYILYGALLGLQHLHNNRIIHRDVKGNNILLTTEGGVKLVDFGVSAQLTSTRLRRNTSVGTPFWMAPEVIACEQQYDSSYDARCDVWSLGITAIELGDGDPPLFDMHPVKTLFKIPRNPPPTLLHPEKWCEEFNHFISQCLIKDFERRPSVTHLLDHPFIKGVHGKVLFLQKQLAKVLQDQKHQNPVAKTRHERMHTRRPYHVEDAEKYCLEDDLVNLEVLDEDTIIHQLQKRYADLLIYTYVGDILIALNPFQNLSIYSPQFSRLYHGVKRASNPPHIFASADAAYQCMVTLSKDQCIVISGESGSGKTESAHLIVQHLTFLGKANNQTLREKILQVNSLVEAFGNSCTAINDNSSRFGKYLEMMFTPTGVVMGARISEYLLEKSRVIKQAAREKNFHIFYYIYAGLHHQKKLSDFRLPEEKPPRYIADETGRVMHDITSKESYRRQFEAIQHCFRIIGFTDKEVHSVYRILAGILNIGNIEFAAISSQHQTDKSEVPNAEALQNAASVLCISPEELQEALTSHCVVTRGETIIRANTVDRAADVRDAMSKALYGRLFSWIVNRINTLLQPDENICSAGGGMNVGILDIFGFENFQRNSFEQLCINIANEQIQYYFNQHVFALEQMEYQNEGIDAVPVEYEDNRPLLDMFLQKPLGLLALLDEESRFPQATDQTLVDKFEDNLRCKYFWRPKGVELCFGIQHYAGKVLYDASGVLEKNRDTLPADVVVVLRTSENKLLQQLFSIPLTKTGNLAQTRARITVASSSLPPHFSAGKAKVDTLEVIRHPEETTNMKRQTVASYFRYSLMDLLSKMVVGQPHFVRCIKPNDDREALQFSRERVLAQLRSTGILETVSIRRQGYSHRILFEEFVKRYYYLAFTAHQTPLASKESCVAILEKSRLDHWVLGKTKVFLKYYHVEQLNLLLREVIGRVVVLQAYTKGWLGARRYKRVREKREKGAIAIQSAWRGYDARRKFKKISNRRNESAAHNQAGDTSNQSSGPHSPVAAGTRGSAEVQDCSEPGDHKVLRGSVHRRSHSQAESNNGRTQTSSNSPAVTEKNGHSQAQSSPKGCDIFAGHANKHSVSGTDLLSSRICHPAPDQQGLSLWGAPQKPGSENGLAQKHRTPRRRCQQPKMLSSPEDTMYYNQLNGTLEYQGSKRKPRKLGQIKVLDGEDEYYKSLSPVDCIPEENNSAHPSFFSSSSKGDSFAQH
The experiment in a line: Selectivity interaction (KinomeScan (DiscoverX)) EUB0000655a MYO3B. The note with it: at 10 µM.

The target of test [5] is Casein kinase I isoform delta (Homo sapiens, UniProt P48730). The experiment in a line: Selectivity interaction (KinomeScan (DiscoverX)) EUB0001079a CSNK1D. The note with it: at 1 µM.
Chain of Casein kinase I isoform delta (P48730 whole entry, looked up, canonical isoform): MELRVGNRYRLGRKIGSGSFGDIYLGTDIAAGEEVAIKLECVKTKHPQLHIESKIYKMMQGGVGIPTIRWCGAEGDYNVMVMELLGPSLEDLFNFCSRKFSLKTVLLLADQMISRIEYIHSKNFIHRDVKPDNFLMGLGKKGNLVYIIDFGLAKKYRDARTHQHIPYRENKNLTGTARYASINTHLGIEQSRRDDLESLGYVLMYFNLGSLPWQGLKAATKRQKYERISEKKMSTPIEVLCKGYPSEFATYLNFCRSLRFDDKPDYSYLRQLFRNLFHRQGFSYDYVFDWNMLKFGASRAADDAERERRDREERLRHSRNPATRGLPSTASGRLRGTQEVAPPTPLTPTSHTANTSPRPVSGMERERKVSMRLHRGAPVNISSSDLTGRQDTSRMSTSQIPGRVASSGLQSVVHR
For test [6], the target named is Serine/threonine-protein kinase tousled-like 2 (Homo sapiens) (UniProt Q86UE8). Nature of the test: Selectivity interaction (ActivX KiNativ screen (ex vivo kinase selectivity in human PBMCs)) EUB0001619a TLK2. The test is classed as cell-based. The note with it: PBMC, at 1 µM.
Chain of Serine/threonine-protein kinase tousled-like 2 (Homo sapiens) (Q86UE8 whole entry, looked up): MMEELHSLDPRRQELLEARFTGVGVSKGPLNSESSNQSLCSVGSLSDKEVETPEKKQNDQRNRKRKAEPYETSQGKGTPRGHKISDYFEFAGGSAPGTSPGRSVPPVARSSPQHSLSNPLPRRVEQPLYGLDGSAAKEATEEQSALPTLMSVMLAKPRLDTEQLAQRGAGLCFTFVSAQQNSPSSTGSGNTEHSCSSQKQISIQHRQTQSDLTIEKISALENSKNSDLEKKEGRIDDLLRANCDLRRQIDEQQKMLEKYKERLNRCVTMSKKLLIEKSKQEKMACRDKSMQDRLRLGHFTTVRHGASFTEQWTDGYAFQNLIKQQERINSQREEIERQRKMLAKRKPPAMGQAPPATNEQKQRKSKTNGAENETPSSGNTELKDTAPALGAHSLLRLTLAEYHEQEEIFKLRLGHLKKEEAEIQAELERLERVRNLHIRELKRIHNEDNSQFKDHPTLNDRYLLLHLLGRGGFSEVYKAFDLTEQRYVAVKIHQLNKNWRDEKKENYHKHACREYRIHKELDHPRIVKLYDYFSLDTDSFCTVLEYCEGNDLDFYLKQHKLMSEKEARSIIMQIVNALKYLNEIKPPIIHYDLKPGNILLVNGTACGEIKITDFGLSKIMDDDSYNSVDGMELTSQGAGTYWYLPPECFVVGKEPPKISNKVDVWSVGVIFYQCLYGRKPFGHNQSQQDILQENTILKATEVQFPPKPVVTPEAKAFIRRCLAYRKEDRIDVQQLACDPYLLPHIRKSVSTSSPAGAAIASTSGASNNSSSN

Each structure is given as a SMILES string.

`C=CC(=O)Nc1ccc(C(=O)Nc2[nH]nc3c2CN(C(=O)N[C@H](CN(C)C)c2ccccc2)C3(C)C)cc1` yielded a % of engagement in test [1] of 5.7%. Consider `Cc1cc([C@@H](C)Nc2ccccc2C(=O)O)c2nc(N3CCOCC3)cc(=O)n2c1` [AZD-6482], for which, in test [2], the % of control was 89%. In turn, `O=C(NOC[C@H](O)CO)c1ccc(F)c(F)c1Nc1ccc(I)cc1F` gave a % of control in test [3] of 100%. `CN(C)CCOc1ccc(-c2nc(-c3ccncc3)c(-c3ccc4c(c3)CC/C4=N\O)[nH]2)cc1` showed a % of control in test [4] of 81%.

Regarding `Nc1cnc(N2CCc3cc(S(=O)(=O)Nc4c(F)cc(Cl)cc4F)cc(N4CCCC4=O)c32)nc1` [TP-020n], the % of control in test [5] came to 98%. Regarding `N#Cc1cccc(-c2c[nH]c3ncnc(N4CCOCC4)c23)c1`, the % of inhibition in test [6] is -21%.

The record behind these values is ChEMBL document CHEMBL5465560, “Selectivity Literature for EUbOPEN Chemogenomic Library” (2024).
